# Source: article PMC4856313 (PLoS Pathogens, 2016)
# Like-named read-outs stand apart in the source and are kept apart here.
# Columns and labels:
# MnaA = molecular target: T1, MnaA (Staphylococcus aureus, UniProt Q9REV4); assay: X-ray crystal structure, […] Å; assay type: binding; conditions: 4 mM Na2UDP added; one UDP per chain; also co-purified with the protein
# T1 construct: MnaA-His6 in the activity assays; purification in supplement (S1 Text); dimer in crystal; residues from 376 to the C-terminus not modelled
# [1] = system: CC(=O)N[C@@H]1[C@@H](OP(=O)(O)OP(=O)(O)OC[C@H]2O[C@@H](n3ccc(=O)[nH]c3=O)[C@H](O)[C@@H]2O)O[C@H](CO)[C@@H](O)[C@@H]1O; assay: purified protein; conditions: reverse reaction, 10 mM NaPi, 50 mM NaCl, pH 8.0, 30°C, MnaA-His6
# [2] = system: CC(=O)N[C@H]1[C@@H](OP(=O)(O)OP(=O)(O)OC[C@H]2O[C@@H](n3ccc(=O)[nH]c3=O)[C@H](O)[C@@H]2O)O[C@H](CO)[C@@H](O)[C@@H]1O; assay: purified protein; conditions: forward reaction, 10 mM NaPi, 50 mM NaCl, pH 8.0, 30°C, MnaA-His6
# [3] = system: T2, Staphylococcus aureus MRSA COL; assay: microbe, parasite or virus in culture; design: minimum inhibitory concentration of antibiotics against staphylococcal strains
# T2 construct: COL (MRSA), parental wild type
# Text: (§1) Minimum inhibitory concentrations (MIC; μg ml^-1) of β-lactams imipenem (IPM), nafcillin (Naf), and dicloxacillin (Dic) are provided. […] To directly evaluate the consequence of these mnaA mutations, WTA of the corresponding mutants was extracted and polymer levels visualized on an alcian blue-silver stained SDS PAGE gel (Fig 3A and S1 Fig).
# [4] = system: T3, Staphylococcus epidermidis MRSE CLB26329; assay: microbe, parasite or virus in culture; design: minimum inhibitory concentration of antibiotics against staphylococcal strains
# T3 construct: CLB26329 (MRSE), parental wild type
# Text: as §1
# [5] = read-out: MIC (µg ml-1) / Vanco
# T1 sequence (Q9REV4 entry or part of it): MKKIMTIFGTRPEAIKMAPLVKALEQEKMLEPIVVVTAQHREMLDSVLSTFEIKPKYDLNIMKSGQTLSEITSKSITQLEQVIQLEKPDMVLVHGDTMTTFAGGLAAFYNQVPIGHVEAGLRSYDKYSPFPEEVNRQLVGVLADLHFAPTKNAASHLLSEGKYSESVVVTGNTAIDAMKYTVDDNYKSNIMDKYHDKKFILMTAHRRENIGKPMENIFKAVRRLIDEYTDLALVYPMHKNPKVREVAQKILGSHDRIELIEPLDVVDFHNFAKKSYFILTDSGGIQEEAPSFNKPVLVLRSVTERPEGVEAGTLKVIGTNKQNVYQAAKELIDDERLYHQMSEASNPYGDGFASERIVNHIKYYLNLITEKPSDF
molecule,measurement,setting,value
O=c1ccn([C@@H]2O[C@H](COP(=O)(O)OP(=O)(O)O)[C@@H](O)[C@H]2O)c(=O)[nH]1 [UDP],"X-ray crystal structure, 1.9 Å",MnaA,The model also contains one molecule of UDP per chain
MnaA (Staphylococcus aureus),Km,[1],131 ± 21 µM
same,Km,[2],411 ± 57 µM
C[C@@H](O)[C@H]1C(=O)N2C(C(=O)O)=C(SCCNC=N)C[C@H]12 [imipenem],MIC,[3]; read-out: MIC (µg ml-1) / IPM,32 µg/mL
same,MIC,[4]; read-out: MIC (µg ml-1) / IPM,64 µg/mL
CCOc1ccc2ccccc2c1C(=O)N[C@@H]1C(=O)N2[C@@H]1SC(C)(C)[C@@H]2C(=O)O [nafcillin],MIC,[3]; read-out: MIC (µg ml-1) / Naf,> 64 µg/mL
same,MIC,[4]; read-out: MIC (µg ml-1) / Naf,> 64 µg/mL
CN[C@H](CC(C)C)C(=O)N[C@H]1C(=O)N[C@@H](CC(N)=O)C(=O)N[C@H]2C(=O)N[C@H]3C(=O)N[C@H](C(=O)N[C@H](C(=O)O)c4cc(O)cc(O)c4-c4cc3ccc4O)[C@H](O)c3ccc(c(Cl)c3)Oc3cc2cc(c3O[C@@H]2O[C@H](CO)[C@@H](O)[C@H](O)[C@H]2O[C@H]2C[C@](C)(N)[C@H](O)[C@H](C)O2)Oc2ccc(cc2Cl)[C@H]1O [vancomycin],MIC,[3]; [5],2 µg/mL
same,MIC,[4]; [5],4 µg/mL
Cc1onc(-c2c(Cl)cccc2Cl)c1C(=O)N[C@@H]1C(=O)N2[C@@H]1SC(C)(C)[C@@H]2C(=O)O [dicloxacillin],MIC,[3]; read-out: MIC (µg ml-1) / Dic,> 64 µg/mL
same,MIC,[4]; read-out: MIC (µg ml-1) / Dic,> 64 µg/mL
